Test results: PubChem BioAssay AID328 (DTP/NCI, 2004)
“And” between values parts separate entries of the source, which are not always exact repeats. Equal entries are not always repeated. Inconclusive results and toxic doses are left out.

Test system: BDF1 mice, P388 leukemia ip, median survival T/C
Test: NCI In Vivo Anticancer Drug Screen. Data for tumor model P388 Leukemia (intraperitoneal) in B6D2F1 (BDF1) mice
Settings: endpoint: median survival time, higher = longer survival
In short: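 Mice carrying the transplantable tumour receive compound or vehicle. Survival is followed in each arm, and the treated measure is divided by the vehicle measure.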

[1] = dose: 25.0 mg/kg/injection, schedule: Q01DX009 (ip), vehicle: saline with Tween-80
[2] = dose: 50.0 mg/kg/injection, schedule: Q01DX009 (ip), vehicle: saline with Tween-80
[3] = dose: 100.0 mg/kg/injection, schedule: Q01DX009 (ip), vehicle: saline with Tween-80
[4] = dose: 200.0 mg/kg/injection, schedule: Q01DX009 (ip), vehicle: Klucel (hydroxypropylcellulose) (HPC)
[5] = dose: 400.0 mg/kg/injection, schedule: Q01DX009 (ip), vehicle: Klucel (hydroxypropylcellulose) (HPC)
[6] = dose: 400.0 mg/kg/injection, schedule: Q04DX003 (ip), vehicle: Klucel (hydroxypropylcellulose) (HPC)
[7] = dose: 100.0 mg/kg/injection, schedule: Q04DX003 (ip), vehicle: saline with Tween-80
[8] = dose: 200.0 mg/kg/injection, schedule: Q01DX009 (ip), vehicle: saline with Tween-80
[9] = dose: 200.0 mg/kg/injection, schedule: Q04DX003 (ip), vehicle: saline with Tween-80
[10] = dose: 25.0 mg/kg/injection, schedule: Q01DX009 (ip), vehicle: Klucel (hydroxypropylcellulose) (HPC)
[11] = dose: 25.0 mg/kg/injection, schedule: Q04DX003 (ip), vehicle: saline with Tween-80
[12] = dose: 50.0 mg/kg/injection, schedule: Q01DX009 (ip), vehicle: Klucel (hydroxypropylcellulose) (HPC)
[13] = dose: 50.0 mg/kg/injection, schedule: Q04DX003 (ip), vehicle: saline with Tween-80
[14] = dose: 100.0 mg/kg/injection, schedule: Q01DX009 (ip), vehicle: Klucel (hydroxypropylcellulose) (HPC)
[15] = dose: 100.0 mg/kg/injection, schedule: Q04DX003 (ip), vehicle: Klucel (hydroxypropylcellulose) (HPC)
[16] = dose: 200.0 mg/kg/injection, schedule: Q04DX003 (ip), vehicle: Klucel (hydroxypropylcellulose) (HPC)
[17] = dose: 6.25 mg/kg/injection, schedule: Q01DX009 (ip), vehicle: saline
[18] = dose: 12.5 mg/kg/injection, schedule: Q01DX009 (ip), vehicle: saline
[19] = dose: 25.0 mg/kg/injection, schedule: Q01DX009 (ip), vehicle: saline
[20] = dose: 100.0 mg/kg/injection, schedule: Q04DX003 (ip), vehicle: saline sonified
[21] = dose: 200.0 mg/kg/injection, schedule: Q04DX003 (ip), vehicle: saline sonified
[22] = dose: 400.0 mg/kg/injection, schedule: Q04DX003 (ip), vehicle: saline sonified
[23] = dose: 6.25 mg/kg/injection, schedule: Q01DX009 (ip), vehicle: saline with Tween-80
[24] = dose: 12.5 mg/kg/injection, schedule: Q01DX009 (ip), vehicle: saline with Tween-80
[25] = dose: 50.0 mg/kg/injection, schedule: Q01DX009 (ip), vehicle: saline
[26] = dose: 100.0 mg/kg/injection, schedule: Q01DX009 (ip), vehicle: saline
[27] = dose: 25.0 mg/kg/injection, schedule: Q01DX001 (ip), vehicle: other
[28] = dose: 50.0 mg/kg/injection, schedule: Q01DX001 (ip), vehicle: other
[29] = dose: 400.0 mg/kg/injection, schedule: Q04DX003 (ip), vehicle: saline with Tween-80

O=S(CC(Cl)c1ccccc1)c1ccccc1 (stereo not given)
T/C (dose: 50.0 mg/kg/injection, schedule: Q01DX009 (ip), vehicle: other): 106 % of control
T/C (dose: 100.0 mg/kg/injection, schedule: Q01DX009 (ip), vehicle: other): 106 % of control
T/C (dose: 200.0 mg/kg/injection, schedule: Q01DX009 (ip), vehicle: other): 100 % of control

OC1CCCCCCCCC1Cl (stereo not given)
T/C [1]: 104 % of control
T/C [2]: 109 % of control
T/C [3]: 100 % of control

CC(C)Cn1cnc2c(Sc3c([N+](=O)[O-])ncn3C)nc(N)nc21
T/C (dose: 67.0 mg/kg/injection, schedule: Q01DX009 (ip), vehicle: Klucel (hydroxypropylcellulose) (HPC)): 115 % of control
T/C [4]: 91 % of control and 104 % of control
T/C [5]: 86 % of control
T/C [6]: 118 % of control

O=NN(CCBr)C(=O)NC1CCCCC1
T/C (dose: 1.5 mg/kg/injection, schedule: Q01DX009 (ip), vehicle: saline with Tween-80): 109 % of control
T/C (dose: 3.0 mg/kg/injection, schedule: Q01DX009 (ip), vehicle: saline with Tween-80): 109 % of control
T/C (dose: 6.0 mg/kg/injection, schedule: Q01DX009 (ip), vehicle: saline with Tween-80): 113 % of control
T/C (dose: 100.0 mg/kg/injection, schedule: Q01DX009 (ip), vehicle: gum acacia): 103 % of control
T/C [3]: 122 % of control
T/C (dose: 100.0 mg/kg/injection, schedule: Q04DX003 (ip), vehicle: gum acacia): 113 % of control
T/C [7]: 109 % of control
T/C (dose: 133.0 mg/kg/injection, schedule: Q01DX009 (ip), vehicle: gum acacia): 115 % of control
T/C (dose: 150.0 mg/kg/injection, schedule: Q01DX009 (ip), vehicle: saline with Tween-80): 95 % of control
T/C [8]: 118 % of control and 122 % of control
T/C (dose: 200.0 mg/kg/injection, schedule: Q04DX003 (ip), vehicle: gum acacia): 104 % of control
T/C [9]: 109 % of control
T/C (dose: 300.0 mg/kg/injection, schedule: Q01DX009 (ip), vehicle: gum acacia): 100 % of control
T/C (dose: 400.0 mg/kg/injection, schedule: Q01DX009 (ip), vehicle: gum acacia): 103 % of control
T/C (dose: 400.0 mg/kg/injection, schedule: Q04DX003 (ip), vehicle: gum acacia): 91 % of control

CCC1SC(=S)N(c2ccc(S(N)(=O)=O)cc2)C1=O (stereo not given)
T/C (dose: 33.75 mg/kg/injection, schedule: Q01DX009 (ip), vehicle: saline with Tween-80): 96 % of control
T/C (dose: 67.5 mg/kg/injection, schedule: Q01DX009 (ip), vehicle: saline with Tween-80): 97 % of control
T/C (dose: 135.0 mg/kg/injection, schedule: Q01DX009 (ip), vehicle: saline with Tween-80): 97 % of control

CCNC(C)(C)C(Cl)c1ccc(Cl)s1 (stereo not given)
T/C [10]: 91 % of control
T/C [11]: 104 % of control
T/C [12]: 104 % of control
T/C [13]: 101 % of control
T/C [7]: 95 % of control

CC1SC(N)=NC1=O (stereo not given)
T/C [14]: 100 % of control
T/C [15]: 109 % of control
T/C [4]: 109 % of control
T/C [16]: 86 % of control
T/C [5]: 100 % of control
T/C [6]: 109 % of control

C[N+]1=C2CCCCCC2=C(N)CC1
T/C [17]: 100 % of control
T/C [18]: 100 % of control
T/C (dose: 12.5 mg/kg/injection, schedule: Q04DX003 (ip), vehicle: saline sonified): 91 % of control
T/C [19]: 100 % of control

CC(C)=NOC(=O)Nc1ccc(Cl)cc1
T/C [10]: 111 % of control
T/C [12]: 118 % of control
T/C [14]: 124 % of control

COc1cc2c(cc1OC)C1=C(CC2)C2CCCN2CC1 (stereo not given)
T/C [17]: 95 % of control
T/C [18]: 105 % of control
T/C [19]: 95 % of control

COc1cc2c(cc1I)-c1c(cc(OC)c(OC)c1OC)CC[C@@H]2NC(C)=O
T/C [20]: 100 % of control
T/C [21]: 108 % of control
T/C [22]: 100 % of control

CC(=O)c1ccccc1I
T/C [14]: 100 % of control
T/C [15]: 104 % of control
T/C [4]: 95 % of control
T/C [16]: 100 % of control
T/C [5]: 100 % of control
T/C [6]: 95 % of control

Cc1[o+]c(C)c2c(c1C)-c1ccccc1C2=O
T/C [23]: 104 % of control
T/C [24]: 113 % of control
T/C [1]: 98 % of control
T/C [11]: 109 % of control
T/C [2]: 106 % of control
T/C [3]: 120 % of control
T/C [7]: 100 % of control
T/C [8]: 104 % of control
T/C [9]: 116 % of control

C/C=C/C(=O)OCC1CC[N+](C)([O-])C1 (stereo not given)
T/C (dose: 200.0 mg/kg/injection, schedule: Q01DX001 (ip), vehicle: saline): 91 % of control
T/C (dose: 200.0 mg/kg/injection, schedule: Q01DX009 (ip), vehicle: saline): 117 % of control
T/C (dose: 400.0 mg/kg/injection, schedule: Q01DX001 (ip), vehicle: saline): 91 % of control
T/C (dose: 800.0 mg/kg/injection, schedule: Q01DX001 (ip), vehicle: saline): 100 % of control
T/C (dose: 800.0 mg/kg/injection, schedule: Q01DX009 (ip), vehicle: saline): 99 % of control
T/C (dose: 1600.0 mg/kg/injection, schedule: Q01DX001 (ip), vehicle: saline): 95 % of control

COC(=O)c1cc(C)c(Br)c(N)c1
T/C [14]: 105 % of control
T/C [15]: 109 % of control
T/C [4]: 100 % of control
T/C [16]: 104 % of control
T/C [5]: 100 % of control
T/C [6]: 109 % of control

Clc1nc(SC2=NCCN2)c2[nH]cnc2n1
T/C (dose: 12.5 mg/kg/injection, schedule: Q04DX003 (ip), vehicle: saline with Tween-80): 108 % of control
T/C (dose: 33.0 mg/kg/injection, schedule: Q04DX003 (ip), vehicle: saline with Tween-80): 118 % of control
T/C [13]: 154 % of control

NC(N)=NCCCCC(=O)Nc1ccc(S(N)(=O)=O)cc1
T/C [19]: 97 % of control
T/C [25]: 112 % of control
T/C [26]: 110 % of control

O=C(O)Cc1ccc(N=Nc2c(O)c(C(=O)O)cc3ccccc23)cc1
T/C [15]: 111 % of control
T/C [16]: 111 % of control
T/C [6]: 100 % of control

O=CC1(C(O)C2SCCCS2)SCCCS1 (stereo not given)
T/C (dose: 12.5 mg/kg/injection, schedule: Q01DX001 (ip), vehicle: other): 95 % of control
T/C [27]: 104 % of control
T/C [28]: 109 % of control

COC(=O)/C=C(\C)Oc1cc(Cl)c(Cl)cc1Cl
T/C [1]: 90 % of control
T/C [2]: 100 % of control
T/C [3]: 100 % of control
T/C [7]: 109 % of control
T/C [9]: 100 % of control
T/C [29]: 95 % of control

CC1C[N-]1.CC1C[N-]1.[Cl][Pt+2][Cl] (stereo not given)
T/C [19]: 100 % of control
T/C [25]: 111 % of control
T/C [26]: 101 % of control
T/C (dose: 150.0 mg/kg/injection, schedule: Q01DX009 (ip), vehicle: saline): 100 % of control

CCCCCCCCCCSS(=O)(=O)O
T/C [27]: 87 % of control
T/C [28]: 95 % of control
T/C (dose: 100.0 mg/kg/injection, schedule: Q01DX001 (ip), vehicle: other): 95 % of control

COC(=O)C(NC(=O)c1ccccc1)=C(COC(C)=O)COC(C)=O
T/C [20]: 95 % of control
T/C [21]: 100 % of control
T/C [22]: 110 % of control

Nc1ccc(Oc2ccc(Cl)cc2)c(Cl)c1
T/C [7]: 100 % of control
T/C [9]: 95 % of control
T/C [29]: 104 % of control

CC(=O)OC1C=CCC2C(=O)C3=C(C(=O)c4ccccc4C3=O)C(=O)C12 (stereo not given)
T/C (dose: 3.12 mg/kg/injection, schedule: Q01DX009 (ip), vehicle: saline with Tween-80): 98 % of control
T/C [23]: 98 % of control
T/C [24]: 107 % of control
T/C [1]: 112 % of control
T/C [2]: 112 % of control
